Results taken from ChEMBL document CHEMBL1201862, “PubChem BioAssay data set” (2004).
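Step 1: Grow cells in 96-well plates. Step 2: Expose to compound for 48 hours at 5 concentrations. Step 3: Interpolate endpoints linearly; if unreached, use highest concentration. Here, GI50 denotes the concentration required for 50% inhibition of growth.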 Calls of active or inactive are those of the source. No stated cut-off is given here; in the data, active = GI50 up to about 1.1 µM and inactive = higher.

Tests used:
Test in all cases: growth of human tumour cells (NCI), 48 h
786-0 = tested on: 786-0
A498 = tested on: A498
A549 = tested on: A549
ACHN = tested on: ACHN
CAKI-1 = tested on: CAKI-1
CCRF-CEM = tested on: CCRF-CEM
COLO 205 = tested on: COLO 205
DLD-1 = tested on: DLD-1
DMS-114 = tested on: DMS-114
DMS-273 = tested on: DMS-273
EKVX = tested on: EKVX
HCC 2998 = tested on: HCC 2998
HCT-15 = tested on: HCT-15
HL-60 = tested on: HL-60
HOP-18 = tested on: HOP-18
HT-29 = tested on: HT-29
IGROV-1 = tested on: IGROV-1
K562 = tested on: K562
KM12 = tested on: KM12
LOX IMVI = tested on: LOX IMVI
LXFL 529 = tested on: LXFL 529
M14 = tested on: M14
MOLT-4 = tested on: MOLT-4
Malme-3M = tested on: Malme-3M
NCI-H23 = tested on: NCI-H23
NCI-H460 = tested on: NCI-H460
NCI-H522 = tested on: NCI-H522
OVCAR-4 = tested on: OVCAR-4
OVCAR-5 = tested on: OVCAR-5
OVCAR-8 = tested on: OVCAR-8
RPMI-8226 = tested on: RPMI-8226
RXF 393 = tested on: RXF 393
SF-268 = tested on: SF-268
SF-295 = tested on: SF-295
SF-539 = tested on: SF-539
SK-MEL-28 = tested on: SK-MEL-28
SK-MEL-2 = tested on: SK-MEL-2
SK-MEL-5 = tested on: SK-MEL-5
SK-OV-3 = tested on: SK-OV-3
SN12C = tested on: SN12C
SNB-19 = tested on: SNB-19
SNB-75 = tested on: SNB-75
SNB-78 = tested on: SNB-78
SW-620 = tested on: SW-620
TK-10 = tested on: TK-10
U-251 = tested on: U-251
UACC-257 = tested on: UACC-257
UACC-62 = tested on: UACC-62
UO-31 = tested on: UO-31
XF498 = tested on: XF498
BT-549 = tested on: BT-549
DU-145 = tested on: DU-145
HCT-116 = tested on: HCT-116
HOP-62 = tested on: HOP-62
HOP-92 = tested on: HOP-92
Hs-578T = tested on: Hs-578T
KM-20L2 = tested on: KM-20L2
M19-MEL = tested on: M19-MEL
MCF7 = tested on: MCF7
MDA-MB-231 = tested on: MDA-MB-231
MDA-MB-435 = tested on: MDA-MB-435
MDA-N = tested on: MDA-N
NCI-H226 = tested on: NCI-H226
NCI/ADR-RES = tested on: NCI/ADR-RES
OVCAR-3 = tested on: OVCAR-3
PC-3 = tested on: PC-3
SR = tested on: SR
T47D = tested on: T47D

S=C1ON=C(c2ccccc2)/C1=C/Nc1ccccc1 was tested, and the GI50 (786-0) was > 100 µM (inactive), the GI50 (A498) was 5.69 µM (inactive) and the GI50 (A549) was > 100 µM (inactive). For the same compound, the GI50 (ACHN) was 47.1 µM (inactive), the GI50 (CAKI-1) was > 100 µM (inactive) and the GI50 (CCRF-CEM) was > 100 µM (inactive). The GI50 (COLO 205) was > 100 µM (inactive), the GI50 (DLD-1) was 37.2 µM (inactive) and the GI50 (DMS-114) was > 100 µM (inactive). For the same compound, the GI50 (DMS-273) was > 100 µM (inactive), the GI50 (EKVX) was > 100 µM (inactive) and the GI50 (HCC 2998) was > 100 µM (inactive). For the same compound, the GI50 (HCT-15) was 78.9 µM, the GI50 (HL-60) was > 100 µM (inactive) and the GI50 (HOP-18) was < 0.01 µM (active). For the same compound, the GI50 (HT-29) was > 100 µM (inactive), the GI50 (IGROV-1) was > 100 µM (inactive) and the GI50 (K562) was 9.98 µM (inactive). For the same compound, the GI50 (KM12) was 23.2 µM (inactive), the GI50 (LOX IMVI) was > 100 µM (inactive) and the GI50 (LXFL 529) was > 100 µM (inactive). The GI50 (M14) was > 100 µM (inactive), the GI50 (MOLT-4) was > 100 µM (inactive) and the GI50 (Malme-3M) was 77.1 µM (inactive). For the same compound, the GI50 (NCI-H23) was > 100 µM (inactive), the GI50 (NCI-H460) was > 100 µM (inactive) and the GI50 (NCI-H522) was > 100 µM (inactive). For the same compound, the GI50 (OVCAR-4) was 9.62 µM (inactive), the GI50 (OVCAR-5) was > 100 µM (inactive) and the GI50 (OVCAR-8) was > 100 µM (inactive). The GI50 (RPMI-8226) was > 100 µM (inactive), the GI50 (RXF 393) was 94.8 µM (inactive) and the GI50 (SF-268) was > 100 µM (inactive). The GI50 (SF-295) was > 100 µM (inactive), the GI50 (SF-539) was 97.7 µM (inactive) and the GI50 (SK-MEL-28) was > 100 µM (inactive). For the same compound, the GI50 (SK-MEL-2) was > 100 µM (inactive), the GI50 (SK-MEL-5) was > 100 µM (inactive) and the GI50 (SK-OV-3) was > 100 µM (inactive). The GI50 (SN12C) was > 100 µM (inactive), the GI50 (SNB-19) was > 100 µM (inactive) and the GI50 (SNB-75) was > 100 µM (inactive). For the same compound, the GI50 (SNB-78) was > 100 µM (inactive), the GI50 (SW-620) was > 100 µM (inactive) and the GI50 (TK-10) was > 100 µM (inactive). The GI50 (U-251) was > 100 µM (inactive), the GI50 (UACC-257) was > 100 µM (inactive) and the GI50 (UACC-62) was 3.24 µM (inactive). The GI50 (UO-31) was > 100 µM (inactive) and the GI50 (XF498) was > 100 µM (inactive).
For CC1=CCCC2C1(C)CCC(C)C2(C)Cc1cc(O)ccc1O (configuration not stated), the GI50 (786-0) was 7.24 µM (inactive), the GI50 (A498) was 12.9 µM (inactive) and the GI50 (A549) was 5.62 µM (inactive). The GI50 (ACHN) was 11.9 µM (inactive), the GI50 (BT-549) was 5.22 µM (inactive) and the GI50 (CAKI-1) was 7.1 µM (inactive). For the same compound, the GI50 (CCRF-CEM) was 1.56 µM (inactive), the GI50 (COLO 205) was 14.8 µM (inactive) and the GI50 (DLD-1) was 6.34 µM (inactive). The GI50 (DMS-114) was 4.2 µM (inactive), the GI50 (DMS-273) was 4.91 µM (inactive) and the GI50 (DU-145) was 15 µM (inactive). The GI50 (EKVX) was 6.27 µM (inactive), the GI50 (HCC 2998) was 8.59 µM (inactive) and the GI50 (HCT-116) was 4 µM (inactive). The GI50 (HCT-15) was 8.73 µM, the GI50 (HL-60) was 1.22 µM (inactive) and the GI50 (HOP-18) was 19.2 µM (inactive). For the same compound, the GI50 (HOP-62) was 13.5 µM (inactive), the GI50 (HOP-92) was 5.79 µM (inactive) and the GI50 (HT-29) was 18.7 µM (inactive). For the same compound, the GI50 (Hs-578T) was 6.19 µM (inactive), the GI50 (IGROV-1) was 5.94 µM (inactive) and the GI50 (K562) was 4.81 µM (inactive). For the same compound, the GI50 (KM-20L2) was 10.8 µM (inactive), the GI50 (KM12) was 5.94 µM (inactive) and the GI50 (LOX IMVI) was 5.48 µM (inactive). The GI50 (M14) was 14.4 µM (inactive), the GI50 (M19-MEL) was 5.57 µM (inactive) and the GI50 (MCF7) was 5.62 µM (inactive). For the same compound, the GI50 (MDA-MB-231) was 12.9 µM (inactive), the GI50 (MDA-MB-435) was 7.24 µM (inactive) and the GI50 (MDA-N) was 11.1 µM (inactive). For the same compound, the GI50 (MOLT-4) was 2.43 µM (inactive), the GI50 (Malme-3M) was 17.7 µM (inactive) and the GI50 (NCI-H226) was 9.29 µM (inactive). The GI50 (NCI-H23) was 4.44 µM (inactive), the GI50 (NCI-H460) was 5.69 µM (inactive) and the GI50 (NCI-H522) was 3.18 µM (inactive). For the same compound, the GI50 (NCI/ADR-RES) was 5.21 µM (inactive), the GI50 (OVCAR-3) was 5.74 µM (inactive) and the GI50 (OVCAR-4) was 10.8 µM (inactive). For the same compound, the GI50 (OVCAR-5) was 21 µM (inactive), the GI50 (OVCAR-8) was 4.54 µM (inactive) and the GI50 (PC-3) was 5.75 µM (inactive). The GI50 (RPMI-8226) was 2.86 µM (inactive), the GI50 (RXF 393) was 7.6 µM (inactive) and the GI50 (SF-268) was 7.26 µM (inactive). The GI50 (SF-295) was 6.3 µM (inactive), the GI50 (SF-539) was 8.34 µM (inactive) and the GI50 (SK-MEL-28) was 14.1 µM (inactive). The GI50 (SK-MEL-2) was 9.06 µM (inactive), the GI50 (SK-MEL-5) was 9.16 µM (inactive) and the GI50 (SK-OV-3) was 14.6 µM (inactive). For the same compound, the GI50 (SN12C) was 8.3 µM (inactive), the GI50 (SNB-19) was 5.68 µM (inactive) and the GI50 (SNB-75) was 7.66 µM (inactive). The GI50 (SNB-78) was 2.59 µM (inactive), the GI50 (SR) was 5.46 µM (inactive) and the GI50 (SW-620) was 6.12 µM (inactive). The GI50 (T47D) was 6.59 µM (inactive), the GI50 (TK-10) was 11.1 µM (inactive) and the GI50 (U-251) was 4.26 µM (inactive). For the same compound, the GI50 (UACC-257) was 13.2 µM (inactive), the GI50 (UACC-62) was 8.49 µM (inactive) and the GI50 (UO-31) was 4.84 µM (inactive). The GI50 (XF498) was 7.23 µM (inactive).
